Experimental data as given in patent US8927550B2, “Heterocyclic compounds as CCR1 receptor antagonists” (Boehringer Ingelheim International GmbH, priority 2009, dated 2015).

Biological target: T1, CCR1 (Homo sapiens, UniProt P32246)
T1 construct: host or cells: Non-adherent cells
T1 sequence (P32246 1-355): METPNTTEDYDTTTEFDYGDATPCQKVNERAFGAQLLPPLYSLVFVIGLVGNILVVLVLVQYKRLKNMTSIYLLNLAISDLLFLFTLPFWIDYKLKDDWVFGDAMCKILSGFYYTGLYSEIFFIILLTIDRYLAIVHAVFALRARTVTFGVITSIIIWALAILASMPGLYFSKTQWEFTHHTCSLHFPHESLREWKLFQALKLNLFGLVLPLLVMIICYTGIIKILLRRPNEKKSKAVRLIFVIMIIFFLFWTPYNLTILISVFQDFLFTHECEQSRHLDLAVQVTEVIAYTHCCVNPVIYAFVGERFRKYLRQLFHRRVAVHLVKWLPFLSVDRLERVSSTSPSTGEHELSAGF
Assay: Calcium flux in CCR1 transfected cells, Method B (Calcium 4 dye, HAMAMATSU FDSS6000), MIP-1alpha at EC80
Type: cell-based
Settings: cells stably expressing recombinant CCR1 and G-alpha-16, 30 minutes at 37 C then 30 minutes at room temperature
Method: Compounds are assessed for the ability to block the interaction of CCR1 and MIP-1α in a functional cellular assay measuring calcium flux in CCR1 transfected cells.
Method B: Non-adherent cells purchased from Chemicon Corporation (HTS005C), stably expressing recombinant CCR1 and G-alpha-16 are grown in RPMI 1640 medium (Mediatech 10-080-CM) supplemented with 10% FBS, 0.4 mg/mL Geneticin and penicillin/streptomycin. On the day of the assay, the cells are loaded with Calcium 4 dye (Molecular Devices R7448) with Probenecid (Invitrogen P346400) at 8E5 cells/mL for 1 hour at room temperature. After 1 hour, they are seeded in a 384-well tissue culture-treated plate at a density of 20,000 cells/well. Appropriately diluted test compound is added to the well to achieve a top concentration of 3,000 nM (diluted 4-fold with 10 doses total). The final concentration of DMSO is 1%. The buffer is HBSS (Invitrogen 14025) with 20 mM HEPES at pH 7.4. The cells incubate 30 minutes at 37 C and then 30 minutes at room temperature. The plates are transferred to the HAMAMATSU FDSS6000 where MIP-1alpha in 1% BSA is added at the EC80 final concentration. All plates must be read within 4 hours of the start of dye-loading. Wells+/−MIP-1alpha containing diluted DMSO instead of compound serve as the controls. Data are analyzed using Activity Base software.

| Structure (SMILES) | IC50 |
| --- | --- |
| CC[C@H](NC(=O)c1cncc2c1ccn2-c1ccc(F)cc1)c1ccc(S(C)(=O)=O)nc1 [1-(4-Fluorophenyl)-1H-pyrrolo[2,3-c]pyridine-4-carboxylic acid [(S)-1-(6-methanesulfonyl-pyridin-3-yl)-propyl]-amide] | 21 nM |
| CC[C@H](NC(=O)c1cc(S(C)(=O)=O)cc2c1ccn2-c1ccc(F)cc1)c1ccc(S(C)(=O)=O)nc1 [1-(4-Fluorophenyl)-6-methanesulfonyl-1H-indole-4-carboxylic acid [(S)-1-(6-methanesulfonyl-pyridin-3-yl)-propyl]-amide] | 260 nM |
| CC[C@H](NC(=O)c1cncc2c1ccn2-c1ccc(F)cc1)c1ccnc(S(C)(=O)=O)c1 [1-(4-Fluorophenyl)-1H-pyrrolo[2,3-c]pyridine-4-carboxylic acid [(S)-1-(2-methanesulfonyl-pyridin-4-yl)-propyl]-amide] | 2 nM |
| CN1CCC(NS(=O)(=O)c2ccc(CNC(=O)c3cc(C#N)cc4c3ccn4-c3ccc(F)cc3)cc2)CC1 [6-Cyano-1-(4-fluorophenyl)-1H-indole-4-carboxylic acid 4-(1-methyl-piperidin-4-ylsulfamoyl)-benzylamide] | 18 nM |
| CS(=O)(=O)c1cc(CNC(=O)c2nncc3c2cnn3-c2ccc(F)cc2)ccn1 [1-(4-Fluorophenyl)-1H-pyrazolo[3,4-d]pyridazine-4-carboxylic acid (2-methanesulfonyl-pyridin-4-ylmethyl)-amide] | 91 nM |
| CCC[C@H](NC(=O)c1cccn2c(-c3ccc(F)cc3)cnc12)c1ccc(Br)nc1 [3-(4-Fluorophenyl)-imidazo[1,2-a]pyridine-8-carboxylic acid [(S)-1-(6-bromopyridin-3-yl)-butyl]-amide] | 1100 nM |
| CS(=O)(=O)c1cccc(CNC(=O)c2cc(C#N)cc3c2ccn3-c2ccc(F)cc2)c1 [6-Cyano-1-(4-fluorophenyl)-1H-indole-4-carboxylic acid 3-methanesulfonyl-benzylamide] | 2 nM |
| CC[C@H](NC(=O)c1cccn2c(-c3ccc(F)cc3)ncc12)c1ccnc(S(C)(=O)=O)c1 [3-(4-Fluorophenyl)-imidazo[1,5-a]pyridine-8-carboxylic acid [(S)-1-(2-methanesulfonyl-pyridin-4-yl)-propyl]-amide] | 2 nM |
| CNS(=O)(=O)c1ccc(CNC(=O)c2cc(O)cc3c2ccn3-c2ccc(F)cc2)cc1 [1-(4-Fluorophenyl)-6-hydroxy-1H-indole-4-carboxylic acid 4-methylsulfamoyl-benzylamide] | 1400 nM |
| CC[C@H](NC(=O)c1cncc2c1ccn2-c1ccc(F)cc1)c1cnc(S(C)(=O)=O)s1 [1-(4-Fluorophenyl)-1H-pyrrolo[2,3-c]pyridine-4-carboxylic acid [(S)-1-(2-methanesulfonyl-thiazol-5-yl)-propyl]-amide] | 23 nM |
| CS(=O)(=O)c1cc(CNC(=O)c2nccn3c(-c4ccc(F)cc4)ncc23)ccn1 [3-(4-Fluorophenyl)-imidazo[1,5-a]pyrazine-8-carboxylic acid (2-methanesulfonyl-pyridin-4-ylmethyl)-amide] | 600 nM |
| CCC[C@H](NC(=O)c1nccn2c(-c3ccc(F)cc3)ncc12)c1cncc(S(C)(=O)=O)c1 [3-(4-Fluorophenyl)-imidazo[1,5-a]pyrazine-8-carboxylic acid [(S)-1-(5-methanesulfonyl-pyridin-3-yl)-butyl]-amide] | 6 nM |
| CC[C@H](NC(=O)c1cncc2c1ccn2-c1ccc(F)cc1)c1cncc(S(C)(=O)=O)c1 [1-(4-Fluorophenyl)-1H-pyrrolo[2,3-c]pyridine-4-carboxylic acid [(S)-1-(5-methanesulfonyl-pyridin-3-yl)-propyl]-amide] | 2 nM |
| CC[C@H](NC(=O)c1cccc2c(-c3ccc(F)cc3)ncn12)c1ccc(Br)nc1 [1-(4-Fluorophenyl)-imidazo[1,5-a]pyridine-5-carboxylic acid [(S)-1-(6-bromopyridin-3-yl)-propyl]-amide] | 96 nM |
| CC[C@H](NC(=O)c1cccn2c(-c3ccc(F)cc3)ncc12)c1ccc(Br)nc1 [3-(4-Fluorophenyl)-imidazo[1,5-a]pyridine-8-carboxylic acid [(S)-1-(6-bromopyridin-3-yl)-propyl]-amide] | 29 nM |
| CC[C@H](NC(=O)c1nncc2c1cnn2-c1ccc(F)cc1)c1ccc(S(C)(=O)=O)nc1 [1-(4-Fluorophenyl)-1H-pyrazolo[3,4-d]pyridazine-4-carboxylic acid [(S)-1-(6-methanesulfonyl-pyridin-3-yl)-propyl]-amide] | 44 nM |

| Structure (SMILES) | IC50 |
| --- | --- |
| CC[C@H](NC(=O)c1cccn2c(-c3ccc(F)cc3)cnc12)c1ccc(Br)nc1 [3-(4-Fluorophenyl)-imidazo[1,2-a]pyridine-8-carboxylic acid [(S)-1-(6-bromopyridin-3-yl)-propyl]-amide] | 1340 nM |
| CS(=O)(=O)c1cc(C2(NC(=O)c3nccn4c(-c5ccc(F)cc5)ncc34)CC2)ccn1 [3-(4-Fluorophenyl)-imidazo[1,5-a]pyrazine-8-carboxylic acid [1-(2-methanesulfonyl-pyridin-4-yl)-cyclopropyl]-amide] | 410 nM |
| CS(=O)(=O)c1cc(C2(NC(=O)c3cc(C#N)cc4c3ccn4-c3ccc(F)cc3)CC2)ccn1 [6-Cyano-1-(4-fluorophenyl)-1H-indole-4-carboxylic acid [1-(2-methanesulfonyl-pyridin-4-yl)-cyclopropyl]-amide] | 0.8 nM |
| CS(=O)(=O)c1cccc(CNC(=O)c2cncc3c2ccn3-c2ccc(F)cc2)c1 [1-(4-Fluorophenyl)-1H-pyrrolo[2,3-c]pyridine-4-carboxylic acid 3-methanesulfonyl-benzylamide] | 565 nM |
| CCC[C@H](NC(=O)c1nccn2c(-c3ccc(F)cc3)ncc12)c1ccnc(S(C)(=O)=O)c1 [3-(4-Fluorophenyl)-imidazo[1,5-a]pyrazine-8-carboxylic acid [(S)-1-(2-methanesulfonyl-pyridin-4-yl)-butyl]-amide] | 5 nM |
| CC(C)(NC(=O)c1nccn2c(-c3ccc(F)cc3)ncc12)c1ccnc(Br)c1 [3-(4-Fluorophenyl)-imidazo[1,5-a]pyrazine-8-carboxylic acid [1-(2-bromopyridin-4-yl)-1-methyl-ethyl]-amide] | 1100 nM |
| C[C@H](NC(=O)c1nncc2c1cnn2-c1ccc(F)cc1)c1ccnc(S(C)(=O)=O)c1 [1-(4-Fluorophenyl)-1H-pyrazolo[3,4-d]pyridazine-4-carboxylic acid [(S)-1-(2-methanesulfonyl-pyridin-4-yl)-ethyl]-amide] | 57 nM |
| CC[C@H](NC(=O)c1nccn2c(-c3ccc(F)cc3)ncc12)c1ccnc(S(C)(=O)=O)c1 [3-(4-Fluorophenyl)-imidazo[1,5-a]pyrazine-8-carboxylic acid [(S)-1-(2-methanesulfonyl-pyridin-4-yl)-propyl]-amide] | 30 nM |
| C[C@H](NC(=O)c1cncc2c1ccn2-c1ccc(F)cc1)c1ccnc(S(C)(=O)=O)c1 [1-(4-Fluorophenyl)-1H-pyrrolo[2,3-c]pyridine-4-carboxylic acid [(S)-1-(2-methanesulfonyl-pyridin-4-yl)-ethyl]-amide] | 45 nM |
| CC[C@H](NC(=O)c1nncc2c1cnn2-c1ccc(F)cc1)c1ccnc(S(C)(=O)=O)c1 [1-(4-Fluorophenyl)-1H-pyrazolo[3,4-d]pyridazine-4-carboxylic acid [(S)-1-(2-methanesulfonyl-pyridin-4-yl)-propyl]-amide] | 3 nM |
| CS(=O)(=O)Nc1ccc(CNC(=O)c2cc(C#N)cc3c2ccn3-c2ccc(F)cc2)cn1 [6-Cyano-1-(4-fluorophenyl)-1H-indole-4-carboxylic acid (6-methanesulfonylamino-pyridin-3-ylmethyl)-amide] | 4 nM |
| CS(=O)(=O)c1ccc(CNC(=O)c2cc(C#N)cc3c2ccn3-c2ccc(F)cc2)cn1 [6-Cyano-1-(4-fluorophenyl)-1H-indole-4-carboxylic acid (6-methanesulfonyl-pyridin-3-ylmethyl)-amide] | 4 nM |
| CS(=O)(=O)c1cc(CNC(=O)c2cncc3c2ccn3-c2ccc(F)cc2)ccn1 [1-(4-Fluorophenyl)-1H-pyrrolo[2,3-c]pyridine-4-carboxylic acid (2-methanesulfonyl-pyridin-4-ylmethyl)-amide] | 455 nM |
| CC[C@H](NC(=O)c1cccc2c(-c3ccc(F)cc3)ncn12)c1ccc(S(C)(=O)=O)nc1 [1-(4-Fluorophenyl)-imidazo[1,5-a]pyridine-5-carboxylic acid [(S)-1-(6-methanesulfonyl-pyridin-3-yl)-propyl]-amide] | 19 nM |
| CC[C@H](NC(=O)c1cccn2c(-c3ccc(F)cc3)ncc12)c1ccc(S(C)(=O)=O)nc1 [3-(4-Fluorophenyl)-imidazo[1,5-a]pyridine-8-carboxylic acid [(S)-1-(6-methanesulfonyl-pyridin-3-yl)-propyl]-amide] | 17 nM |
